# According to paper PMC7973644, “Bioanalytical screening of low levels of dioxins and dioxin-like PCBs in pig meat (pork) for checking compliance with EU maximum and action levels using highly sensitive “third generation” recombinant H4L7.5c2 rat hepatoma cells” (Environmental Sciences Europe, 2021):
# Assays:
# [1] = tested on: aryl hydrocarbon receptor (AhR); parameters: method as in PMID 33614386, PMID 18969555, PMID 18969548; details: CALUX; relative to 2,3,7,8-TCDD; cited from earlier work
# [2] = biological target: T1, aryl hydrocarbon receptor (AhR) (Rattus norvegicus, UniProt P41738); assay: CALUX luciferase reporter bioassay, H4L7.5c2 rat hepatoma cells (20 DREs); type: cell-based
# T1 construct: endogenous in cells; host or cells: H4L7.5c2, H4L1.1c4 and DR-CALUX (H4L1.1c10, H4IIe-based) recombinant rat hepatoma cells
# T1 sequence (P41738 10-853): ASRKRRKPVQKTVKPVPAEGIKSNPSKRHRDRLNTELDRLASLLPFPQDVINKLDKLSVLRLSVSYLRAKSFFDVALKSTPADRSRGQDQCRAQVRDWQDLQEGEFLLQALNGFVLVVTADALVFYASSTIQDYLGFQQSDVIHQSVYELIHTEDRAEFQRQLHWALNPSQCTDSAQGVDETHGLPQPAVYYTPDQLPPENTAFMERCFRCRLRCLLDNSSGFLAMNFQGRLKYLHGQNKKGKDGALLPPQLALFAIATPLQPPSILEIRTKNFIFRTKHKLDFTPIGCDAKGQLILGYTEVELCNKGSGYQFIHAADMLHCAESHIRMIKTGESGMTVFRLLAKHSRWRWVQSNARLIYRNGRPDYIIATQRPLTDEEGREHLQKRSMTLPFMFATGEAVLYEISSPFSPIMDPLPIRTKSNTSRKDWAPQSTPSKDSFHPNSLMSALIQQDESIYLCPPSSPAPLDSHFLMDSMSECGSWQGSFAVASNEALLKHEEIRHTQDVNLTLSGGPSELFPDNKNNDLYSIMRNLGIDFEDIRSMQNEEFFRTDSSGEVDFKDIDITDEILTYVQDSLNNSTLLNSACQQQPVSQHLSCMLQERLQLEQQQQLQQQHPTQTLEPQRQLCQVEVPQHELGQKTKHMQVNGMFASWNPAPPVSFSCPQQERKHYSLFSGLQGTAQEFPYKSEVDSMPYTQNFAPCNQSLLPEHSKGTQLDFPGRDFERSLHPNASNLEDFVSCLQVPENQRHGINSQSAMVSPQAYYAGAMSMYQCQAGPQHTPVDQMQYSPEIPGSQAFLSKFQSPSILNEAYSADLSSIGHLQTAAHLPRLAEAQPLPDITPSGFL
# Excerpt: (§1) A “3rd generation” H4L7.5c2 recombinant rat hepatoma CALUX cell line that contains a stably transfected AhR-responsive firefly luciferase reporter gene under control of 20 dioxin responsive elements (DREs) was utilized in this study. […] H4L7.5c2 rat and other CALUX cell lines, such as H4L1.1c4 rat and […] mouse hepatoma cells (each with 4 DREs), or “3rd generation” H1L7.5c3 mouse hepatoma cells (20 DREs), are freely available for non-profit research purposes and can be obtained from Prof. Denison. These cells are also available for commercial and government screening purposes through a licensing agreement with the Hiyoshi Corporation, Omihachiman, Japan (www.calux-jp.com/english/).
# Exposure of H4L7.5c2 rat cells to dioxins, dioxin-like compounds, and other AhR agonists results in induction of luciferase reporter gene expression in a time-, concentration-, AhR-, and chemical-specific manner. The AhR signal transduction pathway in the CALUX bioassay and the molecular mechanism of activation of gene expression by 2,3,7,8-TCDD and related AhR agonists have been described in detail elsewhere. The level of luciferase expression in CALUX cell lines is directly related to the overall concentration of added AhR activators.
# H4L7.5c2 rat cells of defined sub-confluent density (60–70%) were harvested with trypsin and homogeneously suspended in cell culture medium (α-MEM) containing 10% (v/v) FBS. Cells were counted in a haemocytometer, then seeded in 96-well white clear bottom culture plates (Corning, New York, USA) at approximately 25,000 cells/well. After 1 h of pre-incubation at ambient conditions in a biosafety cabinet, the cells were grown for 20–24 h at 37 °C in the presence of 5% CO2.
# Individual concentrations of a 2,3,7,8-TCDD-standard dilution series (generating assay concentrations of 0.0, 0.1, 0.3, 1.0, 3.0, 10, 30, 300, and 3000 pmol/L) and the sample extracts (both in DMSO) were first added to incubation medium and mixed, and the mixtures subsequently added in triplicate to 96-well plates containing H4L7.5c2 cells. The ability of the bioassay target compounds to adhere to the walls and bottom of the wells can lead to cells in individual wells of a triplicate being dosed with slightly different amounts of AhR-active compounds, leading to increased triplicate RSD values. Well-to-well variability of the cell response also further depends on edge effects commonly observed across 96-well microplates. For a given cell system, inhomogeneous dosing of triplicates and edge effects are some of the main drivers for the assay working range, within which triplicate RSD values are subject to defined limitations (RSD < 15%). Especially, its bottom end should be as low as possible for the present application. Each batch of plates was therefore pre-tested for satisfactorily low and reproducible edge effects. The latter was further reduced by a 1 h pre-incubation under ambient conditions in the safety cabinet immediately after seeding the cells, resulting in an even distribution of the cells in each well. The plates were then placed in an incubator on a 1.5 mm-thin copper sheet on top of the incubator shelf. Copper not only has bactericidal properties, but being a fast heat conductor, it also helps to avoid the formation of patterns in the measured cell response (another type of "edge effects"), caused by temperature gradients near heat-radiating walls or by occasional opening of the incubator door. For preparing the dose media, we applied a validated, fast, and reproducible pipetting procedure followed by thorough re-mixing immediately before dosing the cells only into the inner 60 wells of 96-well plates. Cell culture medium was added to the cells in the 36 outer wells to maintain a balanced atmosphere above all wells allowing homogeneous evaporation rates across the plate during incubation. […]
# [3] = biological target: T2, aryl hydrocarbon receptor (AhR) (Mus musculus, UniProt P30561); assay: CALUX luciferase reporter bioassay, H1L6.1c2 mouse hepatoma cells (4 DREs); type: cell-based; details: H1L6.1c2 mouse (4 DREs)
# T2 sequence (P30561 10-848): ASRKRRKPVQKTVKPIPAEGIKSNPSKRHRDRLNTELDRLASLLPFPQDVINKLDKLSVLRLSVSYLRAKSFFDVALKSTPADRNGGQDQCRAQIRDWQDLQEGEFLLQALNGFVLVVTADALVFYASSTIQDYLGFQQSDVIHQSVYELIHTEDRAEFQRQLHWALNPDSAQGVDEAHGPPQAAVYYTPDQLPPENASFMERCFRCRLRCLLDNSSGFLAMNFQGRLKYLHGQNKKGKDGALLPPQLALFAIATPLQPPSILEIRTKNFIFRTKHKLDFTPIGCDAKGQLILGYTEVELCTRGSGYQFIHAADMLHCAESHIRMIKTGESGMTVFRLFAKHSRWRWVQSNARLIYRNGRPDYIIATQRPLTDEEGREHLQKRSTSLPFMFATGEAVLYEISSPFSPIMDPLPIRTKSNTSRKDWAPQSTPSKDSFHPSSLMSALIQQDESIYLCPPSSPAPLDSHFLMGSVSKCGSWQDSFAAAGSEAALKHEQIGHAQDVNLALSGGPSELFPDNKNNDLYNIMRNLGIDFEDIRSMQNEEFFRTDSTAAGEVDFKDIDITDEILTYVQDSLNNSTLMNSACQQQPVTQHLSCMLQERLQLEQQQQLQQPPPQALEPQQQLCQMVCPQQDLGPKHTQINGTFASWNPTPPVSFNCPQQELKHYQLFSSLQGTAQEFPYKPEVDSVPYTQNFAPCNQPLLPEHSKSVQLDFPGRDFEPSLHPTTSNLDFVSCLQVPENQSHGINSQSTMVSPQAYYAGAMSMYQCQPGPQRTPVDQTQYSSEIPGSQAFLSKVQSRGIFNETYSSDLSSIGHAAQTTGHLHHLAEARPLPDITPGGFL
# T2 sequence (P53762 2-791 partner): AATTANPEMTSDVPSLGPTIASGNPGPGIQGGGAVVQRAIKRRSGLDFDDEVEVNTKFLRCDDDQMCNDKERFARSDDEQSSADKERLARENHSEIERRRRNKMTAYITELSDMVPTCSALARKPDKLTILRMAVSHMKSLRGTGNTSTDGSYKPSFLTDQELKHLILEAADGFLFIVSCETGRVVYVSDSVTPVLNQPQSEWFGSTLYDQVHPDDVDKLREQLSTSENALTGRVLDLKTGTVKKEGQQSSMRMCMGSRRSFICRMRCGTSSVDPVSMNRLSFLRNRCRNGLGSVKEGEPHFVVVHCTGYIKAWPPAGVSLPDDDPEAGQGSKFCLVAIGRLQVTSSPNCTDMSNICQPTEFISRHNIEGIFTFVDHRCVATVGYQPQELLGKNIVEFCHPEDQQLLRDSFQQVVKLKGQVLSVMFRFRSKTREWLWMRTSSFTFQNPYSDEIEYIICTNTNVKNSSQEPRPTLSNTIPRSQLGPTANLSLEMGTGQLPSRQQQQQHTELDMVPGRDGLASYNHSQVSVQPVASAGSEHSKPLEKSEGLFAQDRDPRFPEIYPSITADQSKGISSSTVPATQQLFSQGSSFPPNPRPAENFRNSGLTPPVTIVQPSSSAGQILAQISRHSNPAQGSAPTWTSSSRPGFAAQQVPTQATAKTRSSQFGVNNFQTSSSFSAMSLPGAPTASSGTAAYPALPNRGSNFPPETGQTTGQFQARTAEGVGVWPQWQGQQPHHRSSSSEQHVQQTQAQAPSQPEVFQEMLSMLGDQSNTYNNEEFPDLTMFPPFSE
# Excerpt: (§2) We compared both key indicators of assay performance, calibrator bias and imprecision, and the resulting working range for H4L7.5c2 rat hepatoma cells (this study) with those obtained using various other cell lines (4 DREs: H4L1.1c4 rat, DR-CALUX rat, H1L6.1c2 mouse hepatoma cells; 20 DREs: H1L7.5c3 mouse hepatoma cells) previously evaluated (Table 2). Commercially available DR-CALUX cells, a recombinant rat hepatoma (H4IIe)-based cell line (H4L1.1c10), were obtained from BioDetection Systems (The Netherlands). When using CALUX cell lines that contain 4 DREs, the lower limit of working range (LLOW), or the concentration above which results may be reported, is typically close to 1 pmol/L if both RLU-based and concentration-based criteria for bias and imprecision are fulfilled (assay working range B in Table 2). […] When utilizing H1L7.5c3 mouse hepatoma cells, which also contain 20 DREs, the LLOW equals 0.3 pmol/L, as well. However, the range in which assay concentrations match all criteria for bias and imprecision is smaller with an upper limit of working range (ULOW) of just 10 pmol/L. It follows that the “3rd generation” H4L7.5c2 rat hepatoma cells provide the most suitable working range of the assay for low sample concentrations, regardless of whether only the current EU RLU-based imprecision requirements are met or whether bias-related and concentration-based criteria are additionally observed (Table 2).
# (§3) While absolute induction is driven by the efficiency of gene expression, fold induction is the ratio between the cell response (RLU) induced by a calibration standard, or by AhR-active dioxin-like compounds present in a sample extract, and the unspecific assay background response (RLU). […] Furthermore, the Chi-square-to-degrees of freedom ratio (χ^2/DF, with χ^2 ~ WSSR) known to be a stand-alone index characterizing the quality of a model fit is provided for each cell line. […] The latter is the case for each cell line (Table 3). […] An explanation can be found in the fact that triplicate standard deviations were used as rough estimates.
# [4] = biological target: T1, aryl hydrocarbon receptor (AhR); assay: DR-CALUX luciferase reporter bioassay, recombinant rat hepatoma (H4IIe)-based cells (4 DREs); type: cell-based; details: DR-CALUX rat (4 DREs)
# Excerpt: as §2, §3
# [5] = biological target: T1, aryl hydrocarbon receptor (AhR); assay: CALUX luciferase reporter bioassay, H4L1.1c4 rat hepatoma cells (4 DREs); type: cell-based; details: H4L1.1c4 rat (4 DREs)
# Excerpt: as §1, §2, §3
# [6] = parameters: method as in PMID 15083163; details: adult humans; cited from earlier work
# [7] = biological target: T2, aryl hydrocarbon receptor (AhR); assay: CALUX luciferase reporter bioassay, H1L7.5c3 mouse hepatoma cells (20 DREs); type: cell-based; details: H1L7.5c3 mouse (20 DREs)
# Excerpt: as §1, §2, §3
# [8] = H4L7.5c2 rat (20 DREs), 5-PL fit by WSSR regression
compound,measurement,setting,value
Clc1ccc(-c2cc(Cl)c(Cl)c(Cl)c2)cc1Cl [PCB 126],"Relative potency (REP) or response of the cell bioassay compared to the response to 2,3,7,8-TCDD",[1],approximately 40%
"Clc1cc2c(cc1Cl)Oc1cc(Cl)c(Cl)cc1O2 [2,3,7,8-TCDD, 2,3,7,8-tetrachlorodibenzo-p-dioxin]",Fold induction at 0.3 pmol/L,"[2]; H4L7.5c2 rat (20 DREs), 0.3 pmol/L",1.46
same,Fold induction at 1.0 pmol/L,"[2]; H4L7.5c2 rat (20 DREs), 1.0 pmol/L",4.47
same,Asymmetry factor (e),"[2]; H4L7.5c2 rat (20 DREs), 5-PL fit",1.51
same,EC50,[2]; [8],11.4 pM
same,EC70,[2]; [8],22.3 pM
same,Inflection point (c),[2]; [8],7.22 pmol/L
same,Maximum fold induction,[2]; [8],136
same,Slope (b),"[2]; H4L7.5c2 rat (20 DREs), Hill coefficient of 5-PL fit",1.17
same,Maximum response,"[2]; H4L7.5c2 rat hepatoma cells, corrected for the assay background response, 5-PL fit",4730 RLUs
same,Fold induction at 0.3 pmol/L,[3]; 0.3 pmol/L,1.12
same,Fold induction at 1.0 pmol/L,[3]; 1.0 pmol/L,1.56
same,Asymmetry factor (e),[3]; 5-PL fit,1.42
same,EC70,[3]; 5-PL fit by WSSR regression,50.5 pM
same,Inflection point (c),[3]; 5-PL fit by WSSR regression,15.0 pmol/L
same,Maximum fold induction,[3]; 5-PL fit by WSSR regression,31.2
same,Slope (b),[3]; Hill coefficient of 5-PL fit,1.03
same,EC50,"[3]; H1L6.1c2 mouse hepatoma CALUX cells (4 DREs), 5-PL fit by WSSR regression",23.5 pM
same,Fold induction at 0.3 pmol/L,[4]; 0.3 pmol/L,1.16
same,Fold induction at 1.0 pmol/L,[4]; 1.0 pmol/L,1.53
same,Asymmetry factor (e),[4]; 5-PL fit,0.63
same,EC50,[4]; 5-PL fit by WSSR regression,7.89 pM
same,EC70,[4]; 5-PL fit by WSSR regression,14.0 pM
same,Inflection point (c),[4]; 5-PL fit by WSSR regression,12.0 pmol/L
same,Maximum fold induction,[4]; 5-PL fit by WSSR regression,8.75
same,Slope (b),[4]; Hill coefficient of 5-PL fit,1.70
same,Fold induction at 0.3 pmol/L,[5]; 0.3 pmol/L,1.33
same,Fold induction at 1.0 pmol/L,[5]; 1.0 pmol/L,2.44
same,Asymmetry factor (e),[5]; 5-PL fit,1.81
same,EC50,[5]; 5-PL fit by WSSR regression,5.52 pM
same,EC70,[5]; 5-PL fit by WSSR regression,19.8 pM
same,Inflection point (c),[5]; 5-PL fit by WSSR regression,3.67 pmol/L
same,Maximum fold induction,[5]; 5-PL fit by WSSR regression,20.6
same,Slope (b),[5]; Hill coefficient of 5-PL fit,0.90
same,half-life,[6],3 to 10 years
same,Fold induction at 0.3 pmol/L,[7]; 0.3 pmol/L,1.10
same,Fold induction at 1.0 pmol/L,[7]; 1.0 pmol/L,1.62
same,Asymmetry factor (e),[7]; 5-PL fit,1.15
same,EC70,[7]; 5-PL fit by WSSR regression,9.21 pM
same,Inflection point (c),[7]; 5-PL fit by WSSR regression,4.63 pmol/L
same,Maximum fold induction,[7]; 5-PL fit by WSSR regression,10.5
same,Slope (b),[7]; Hill coefficient of 5-PL fit,1.48
same,EC50,"[7]; H1L7.5c3 mouse hepatoma CALUX cells (20 DREs), 5-PL fit by WSSR regression",5.28 pM
